Source: article PMC8318231, “Rate-of-Kill (RoK) assays to triage large compound sets for Chagas disease drug discovery: Application to GSK Chagas Box” (PLoS Neglected Tropical Diseases, 2021)

Key:
[1] = test system: T. cruzi Tulahuen trypomastigotes; test: T. cruzi trypomastigote assay (Cell Titer-Glo viability, ATP luminescence); assay type: cell-based, Trypanosoma cruzi; conditions: for Trypomastigotes pIC50 48 hours: 48 hours incubation; for Trypomastigotes pIC50 48 hours / Trypomastigotes pIC50 72 hours: pIC50 = -log10 IC50 in molar units; for Trypomastigotes pIC50 72 hours: 72 hours incubation; for 72 pIC50 (trypomastigotes, raw data of Fig 1D): 72 hours, plotted values, censored values given without sign; for 48 pIC50 / 72 pIC50: trypomastigote assay; for 48 pIC50: 48 h; for 72 pIC50: 72 h
Outline: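 Compounds were tested in dose response or once at a final 5 μM against 5 × 10^4 trypomastigotes per well (DMEM, 2% FBS), collected on days 5–8 from LLC-MK2 infected cultures. ATP luminescence via CellTiter-Glo reports live parasites; DMSO defines 0% and cell-free wells 100% effect.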

[2] = test system: T. cruzi intracellular amastigotes in H9c2 cells; test: Rate-of-Kill (RoK) high-content imaging assay, amastigotes per cell (AM/CELL) and curve descriptors; assay type: cell-based, Trypanosoma cruzi; set-up: key to ME_24h / ME_48h / ME_72h: % reduction in parasite burden (cidal response); t50pct_MCC50 / t50pct_Cmax: unit not given here; conditions: for ME_24h: 24h; for ME_48h: 48h; for ME_72h: 72h; for AM/CELL NORM: sheet figure 4 A; for tlag_Cmax / t50pct_Cmax / t50%_Cmax: at Cmax; for ME_24h (%): maximum effect at 24 h; for ME_24h (%) / ME_48h (%) / ME_72h (%): RoK assay; for ME_48h (%): maximum effect at 48 h; for ME_72h (%): maximum effect at 72 h; for ME 24h (maximum effect at 24 hours, intracellular amastigotes): maximum percentage of parasite burden reduction reached by any concentration
Outline: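 Readouts at each time point are amastigotes per cell and host nuclei count (cytotoxicity), from DRAQ5 high-content imaging. Infection: trypomastigotes on H9c2 at MOI 8 for 18 h. Dosing was 5 μM single point or 11 points, 1/3 steps from 50 μM. Effect scaled between 4 h infected and uninfected controls.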

Row | SMILES | Trypomastigotes pIC50 48 hours [1] | Trypomastigotes pIC50 72 hours [1] | ME_24h ([2]; figure 5) | ME_48h ([2]; figure 5) | ME_72h ([2]; figure 5) | MCCE ([2]; RoK curve descriptor) | AM/CELL NORM ([2]; Time 4) | AM/CELL NORM ([2]; Time 24) | AM/CELL NORM ([2]; Time 48) | AM/CELL NORM ([2]; Time 72) | tlag_Cmax [2] | t50pct_Cmax ([2]; figure 5) | tlag_Cmax ([2]; figure 5) | t50pct_MCC50 ([2]; at MCC50, figure 5) | tlag_MCC50 ([2]; at MCC50, figure 5) | MCCE ([2]; figure 5) | ME_24h (%) [2] | ME_48h (%) [2] | ME_72h (%) [2] | ME 24h (maximum effect at 24 hours, intracellular amastigotes) [2] | other results
1 | O=C(c1cccc(Cl)c1Cl)N1CCn2c1nc(-c1ccncc1)cc2=O [TCMDC-143409] | < 4.3 | < 4.3 | -46.4941 | -253.426 | 11.7221 | 0.6 µM | 24.5196 | -46.4941 | -266.503 | -474.938 | 72.0 h | 72 | 72 | 72 | 72 | 0.6173 | -46.5% | -253.4% | 11.7% | -46.4941% | 72 pIC50 (trypomastigotes, raw data of Fig 1D) [1]: < 4.3; 48 pIC50 ([1]; figure 1A): < 4.3; 72 pIC50 ([1]; figure 1A): < 4.3; 72 pIC50 ([1]; figure 1B): < 4.3; MCC50 ([2]; figure 5): 50 µM
2 | CS(=O)(=O)c1cccc(-c2cnc(N)c3c(-c4ccc(CO)cc4)csc23)c1.O=C(O)C(F)(F)F [TCMDC-143410] | 4.5 | 4.4 | 16.9023 | 39.285 | 41.8133 | 1.2 µM | 25.2958 | 6.562 | -1.837 | 13.104 | 36.0 h | 72 | 36 | 72 | 38 | 1.235 | 16.9% | 39.3% | 41.8% | 40.1676% | MCC50 ([2]; RoK curve descriptor): 1.9 µM; t50%_MCC50 ([2]; at MCC50): 72.0 h; tlag_MCC50 ([2]; at MCC50): 4.0 h; MCC50 ([2]; figure 5, in µM): 25.9259
3 | O=C(NCCc1ccccn1)C(c1cn[nH]c1)N1CCN(c2ccc(Cl)c(Cl)c2)CC1 (stereo not drawn) [TCMDC-143411] | < 4.3 | < 4.3 | -24.7459 | 74.9666 | 99.2836 | 0.2 µM | 6.745 | -24.7459 | 74.9666 | 99.2836 | 24.0 h | 48 | 24 | 72 | 24 | 0.2058 | -24.8% | 75.0% | 99.3% | -24.7459% | 72 pIC50 (trypomastigotes, raw data of Fig 1D) [1]: < 4.3; 48 pIC50 ([1]; figure 1A): < 4.3; 72 pIC50 ([1]; figure 1A): < 4.3; 72 pIC50 ([1]; figure 1B): < 4.3; MCC50 ([2]; RoK curve descriptor): 16.7 µM; t50%_Cmax [2]: 48.0 h; t50%_MCC50 ([2]; at MCC50): 72.0 h; tlag_MCC50 ([2]; at MCC50): 24.0 h; MCC50 ([2]; figure 5, in µM): 16.6667
4 | COc1cc(-c2nc(N3CCOCC3)sc2-c2ccnc(NC3CCOCC3)n2)ccc1Cl.O=C(O)C(F)(F)F [TCMDC-143414] | < 4.3 | < 4.3 | -30.3967 | 4.32 | 10.4319 | 0.34 µM | -8.885 | -7.51 | 27.1663 | 39.4258 | 14.0 h | 72 | 14 | 72 | 72 | 0.3429 | -30.4% | 4.3% | 10.4% | -7.51% | 72 pIC50 (trypomastigotes, raw data of Fig 1D) [1]: < 4.3; 48 pIC50 ([1]; figure 1A): < 4.3; 72 pIC50 ([1]; figure 1A): < 4.3; 72 pIC50 ([1]; figure 1B): < 4.3; MCC50 ([2]; figure 5): 50 µM
5 | CC(=Cc1ccccc1)CN1CCC(=O)N(Cc2cccnc2)CC1 [TCMDC-143421] | 4.7 | < 4.3 | -70.7645 | -276.175 | -1.901 | 1.9 µM | -0.3924 | -98.2079 | -300.018 | -16.9527 | 48.0 h | 72 | 48 | 72 | 72 | 1.852 | -70.8% | -276.2% | -1.9% | -70.7645% | MCC50 ([2]; figure 5): 50 µM
6 | CC(C)Oc1cccc(N2CCC(C(=O)N3CCCN(C(C)C)CC3)CC2)c1.Cl [TCMDC-143432] | < 4.3 | < 4.3 | -31.9347 | 48.3783 | 79.9841 | 1.2 µM | -8.446 | -20.4309 | 59.253 | 56.8532 | 24.0 h | 60 | 24 | 72 | 24 | 1.235 | -31.9% | 48.4% | 80.0% | -15.8852% | 72 pIC50 (trypomastigotes, raw data of Fig 1D) [1]: < 4.3; 48 pIC50 ([1]; figure 1A): < 4.3; 72 pIC50 ([1]; figure 1A): < 4.3; 72 pIC50 ([1]; figure 1B): < 4.3; MCC50 ([2]; RoK curve descriptor): 1.9 µM; t50%_Cmax [2]: 60.0 h; t50%_MCC50 ([2]; at MCC50): 72.0 h; tlag_MCC50 ([2]; at MCC50): 24.0 h; MCC50 ([2]; figure 5, in µM): 1.852
7 | CCN(Cc1ccncc1)Cc1ccc(NC(=O)c2cc(-c3ccc(F)cc3)n[nH]2)cc1 [TCMDC-143433] | 4.9 | 4.5 | -248.551 | -140.579 | 30.4902 | 0.2 µM | 7.09 | -279.989 | -140.579 | 25.9601 | 24.0 h | 72 | 24 | 72 | 72 | 0.2058 | -248.6% | -140.6% | 30.5% | -248.551% | MCC50 ([2]; figure 5): 50 µM
